These results are taken from PMC5734728, “The JAK2/STAT3 inhibitor pacritinib effectively inhibits patient-derived GBM brain tumor initiating cells in vitro and when used in combination with temozolomide increases survival in an orthotopic xenograft model” (PLoS ONE, 2017).

Where two headings read alike, the source gives them in different places.

In one data set the test system is BT50. Briefly: alamarBlue BTIC viability assay, BT50. Particulars: Homo sapiens; BTIC line BT50, alamarBlue. It is filed as cell-based. On the technique in general: The colour change of resazurin is a common sign of viable cells or microbes.
The test system of a further data set is BT69. Briefly: alamarBlue BTIC viability assay, BT69. The data set is classed as cell-based. The note with it: Homo sapiens; BTIC line BT69, alamarBlue.
In a further data set the test system is BT147. Briefly: alamarBlue BTIC viability assay, BT147. It is filed as cell-based. Particulars: Homo sapiens; BTIC line BT147, alamarBlue.
For a further data set, the system named is p-STAT3 Y705. Briefly: western blotting of activated STAT3 in BTICs. The data set is classed as cell-based, human. Particulars: for STAT3 activation (phosphorylation on tyrosine 705): 3 hours. How it is done: BTIC spheres were enzymatically dissociated as described above and plated at 10^6 cells/2 mL of media. Cells were treated with vehicle (DMSO), pacritinib, TMZ, or a combination of pacritinib and TMZ and pelleted at select time points (3, 24, and 48 hours). For protein extraction, BTICs were lysed in modified radio-immunoprecipitation assay buffer supplemented with Complete Mini protease (Roche) and Halt phosphatase (Thermo Scientific) inhibitor cocktails. Protein concentrations were quantified using the BioRad protein assay; 20 μg of protein were loaded on 6% or 10% sodium dodecyl sulfate polyacrylamide gel electrophoresis (SDS PAGE) gels and transblotted to nitrocellulose membranes. Blots were stained with primary antibodies followed by horseradish peroxidase-conjugated secondary antibodies. Primary antibodies included p-STAT3 Y705 (1:1000; Cell Signaling Technology), STAT3 (1:1000; Cell Signaling Technology), p-Akt S473 (1:1000; Cell Signaling Technology), Akt (1:1000; Cell Signaling Technology), p-p44/42 MAPK (T202/Y204) (1:1000; Cell Signaling Technology), p44/42 MAPK (1:4000; Cell Signaling Technology), poly (ADP-ribose) polymerase (1:1000; Cell Signaling Technology), β-tubulin (1:1000; Cell Signaling Technology), and Actin (1:1000; Santa Cruz Biotechnology). Secondary antibodies included donkey anti-mouse (1:5000; Cell Signaling Technology), donkey anti-goat (1:5000; Millipore), and goat anti-rabbit (1:5000; Cell Signaling Technology). The blots were washed with tris-buffered saline and tween 20 (T-TBS) (50mM Tris, 150mM NaCl, 0.05% Tween 20, pH 7.6) and blocked with tris-buffered saline (TBS) before imaging. Bands were visualized with the SuperSignal West Pico chemiluminescent solution (Thermo Scientific) and an Amersham™ Imager 600 (General Electric).
(In general: Immunoblotting shows a protein as a band on a membrane.)

A short description of data set [1]: five-day pharmacokinetics by LC-MS, serum and brain. The data set is classed as in vivo, mice. Particulars: SCID, mouse, five days, mean ± SD, N = 3; for concentration at 300 min: 300 minutes post-dosing; for concentration at 30 min: 30 minutes post-dosing. How it is done: Animal studies were performed following institutional ethical guidelines and protocols approved by the University of Calgary Health Sciences Animal Care Committee, accredited by the Canadian Council on Animal Care (CCAC). Non-tumor bearing mice were treated with 100 or 200 mg/kg doses of pacritinib by oral gavage for five consecutive days. Three mice per group were used. Post-dosing, blood was collected at 30 and 300 minute time points. The serum was separated by centrifugation. Liquid chromatography-mass spectrometry (LC-MS) was performed to determine the serum concentration of pacritinib. To determine brain penetration, brains were harvested and processed at the 300 minute time point following transcardiac perfusion with PBS. Brains were removed and flash frozen at -80°C. Pacritinib accumulation in the brain was analyzed using LC-MS.

The nature of data set [2]: human liver microsomal stability assay. The data set is classed as in vitro ADME. Particulars: human liver microsomes, 30-minute incubation. How it is done: Working stocks were initially diluted to a concentration of 40 μM in 0.1 M potassium phosphate buffer before addition to the reaction vials. Pooled mouse (CD-1, male) or human (50 donors) liver microsomes were utilized at a final concentration of 0.5 mg/mL. Duplicate wells were used for each time point (0 and 30 minutes). Reactions were carried out at 37°C in a shaker, and the final concentration of DMSO was kept constant at 0.01%. The final volume for each reaction was 100 μL, which included the addition of an NADPH-Regeneration solution (NRS) mix. The NRS mix was comprised of glucose 6-phosphate dehydrogenase (0.4 U/mL), NADP+ (1.3 mM), MgCl2 (3.3 mM), and glucose 6-phosphate (3.3 mM) in assay mixtures. Upon completion of the 30-minute time point, reactions were terminated by the addition of 1.5-volumes (150 μL) of ice-cold acetonitrile with 0.5% formic acid and internal standard. Samples were then centrifuged at 4,000 rpm for 10 minutes to remove debris and precipitated protein. Approximately 150 μL of supernatant was subsequently transferred to a new 96-well microplate for LC-MS analysis. Narrow-window mass extraction LC-MS analysis was performed for all samples using a Waters Xevo quadrupole time-of-flight (QToF) mass spectrometer and an ACQUITY UPLC system, to determine relative peak areas of parent compound.
(Liver microsomes are vesicles of endoplasmic reticulum, rich in cytochrome P450 enzymes.)

For data set [3], the system named is BT53 orthotopic xenograft. Briefly: Kaplan-Meier survival, orthotopic BT53 xenograft. It is filed as in vivo, mice. Particulars: BT53 xenografted mice, 100 mg/kg pacritinib, three weeks; p < 0.7237 log-rank. How it is done: For Kaplan-Meier survival studies, BTIC spheres from BT53 or BT147 were dissociated to a single-cell suspension. Mice were anaesthetized using 10 mg/kg ketamine/xylazine. Buprenorphine (0.05 mg/kg) was administered once pre-operatively and once post-operatively to minimize animal suffering. 5 x 10^4 cells were stereotactically implanted into the right striata of 8- to 10-week-old female severe combined immunodeficient (SCID) mice, as previously described and approved by the University of Calgary Health Sciences Animal Care Committee, accredited by CCAC. Mice were randomized to vehicle or treatment cohorts, with a minimum of 8 mice per group, one week after cell implantation. For BT147, vehicle (Ora-Plus; Galenova), pacritinib (100 mg/kg), TMZ (30 mg/kg), or a combination of pacritinib (100 mg/kg) and TMZ (30 mg/kg), were administered via oral gavage. Animals completed a five-week regimen of three weekly treatments for a total of 15 treatments. For BT53, 100 mg/kg of pacritinib was administered twice per day alone or in combination with 50 mg/kg TMZ once per day, for one week via oral gavage. Following this, mice received 100 mg/kg pacritinib twice per day in combination with 10 mg/kg TMZ once per day for two weeks. […] The body weights were closely monitored throughout the course of the experiment. […]

Data set [4] has as its system BT143 orthotopic xenograft. Briefly: Kaplan-Meier survival, orthotopic BT143 xenograft. The data set is classed as in vivo. Particulars: BT143 xenografted mice; p < 0.4622 log-rank.

`C1=C/COCc2cc(ccc2OCCN2CCCC2)Nc2nccc(n2)-c2cccc(c2)COC/1` [pacritinib]: the values for the half-maximal inhibitory concentration (IC50) with BT50, with BT69 and in the data set on BT147 were 620 nM, 1260 nM and 990 nM, respectively. Moreover, the “p-STAT3 Y705” value in the data set with p-STAT3 Y705 (BT53, 48 hours, 1 μM pacritinib, 10 μg/mL TMZ or both) was “dramatically reduced phosphorylation”. Moreover, the “STAT3 activation (phosphorylation on tyrosine 705)” value is reported as “decreased STAT3 activation” in the data set on p-STAT3 Y705 (BT53, low micromolar concentrations) and “strongly decreased STAT3 activation” in the data set on p-STAT3 Y705 (BT147, 1 μM). The “activated STAT3 (phosphorylation on tyrosine 705)” value in the data set with p-STAT3 Y705 (BT69, 3 hours) is listed as “decreased activated STAT3”. Moreover, the concentration at 300 min turned out to be 910 ± 61 nM in data set [1] (brain, 100 mg/kg oral gavage, read-out: [Brain]); 840 ± 20 nM in data set [1] (brain, 200 mg/kg oral gavage, read-out: [Brain]); 510 ± 140 nM in data set [1] (serum, 100 mg/kg oral gavage, read-out: [Serum]); 430 ± 120 nM in data set [1] (serum, 200 mg/kg oral gavage, read-out: [Serum]). For the same molecule, the concentration at 30 min in data set [1] (serum, 100 mg/kg oral gavage) came to 2660 ± 720 nM; in data set [1] (serum, 200 mg/kg oral gavage), 12600 ± 980 nM. Also, the stability rating entry in data set [2] is recorded as “Stable”. Further, the amount remaining at 0.5 h, 1 μM in data set [2] (1 μM) stood at 76.2 ± 7.9%. Further, in data set [3], the “survival advantage, single agent” value is reported as “failed to provide a survival advantage”. In addition, in data set [4], the “efficacy of treatment alone (Kaplan-Meier survival)” value is recorded as “no efficacy”.

As usually defined, the IC50 is the point on the concentration scale where inhibition reaches its midpoint. A high value points to weaker potency. The term amount remaining denotes the share of the starting amount still present when the sample was taken.
